The subject of assay [1] is S. coelicolor M145. Put plainly: MIC of vancomycin on MM agar plates with added D-Ala or L-Ala. It counts as cell-based, Streptomyces coelicolor. The note with it: for MIC: Streptomyces coelicolor. As for the experimental part:
The naturally vancomycin-resistant model organism S. coelicolor M145 was used as the initial test system. The strain was grown on solid minimal medium (MM) agar plates with increasing amounts of D-Ala and vancomycin. D-Ala was thereby added in concentrations of 5, 10 and 50 mM and the effect on the MIC of vancomycin assessed. As a first control, L-Ala was added and, as a second control, no amino acids were added. […] This was not altered when the culture media were supplemented with up to 50 mg/ml L-Ala (Table 1 and FIG. 6).
(§1) Escherichia coli strains JM109 (Sambrook et al., 1989) and ET12567 (Kieser et al., 2000) were used for routine cloning procedures and for extracting non-methylated DNA, respectively. Cells of E. coli were grown in Luria-Berani broth (LB) at 37° C. Streptomyces coelicolor A3(2) M145 was the parent of all mutants described in this work. All media and routine Streptomyces techniques were carried out as described (Kieser et al., 2000). SFM (soy flour mannitol) agar plates were used for propagating S. coelicolor strains and to prepare spore suspensions. For liquid-grown cultures, S. coelicolor mycelia were grown in normal minimal media with phosphate (NMMP) supplemented with 1% (w/v) mannitol as the sole carbon source. The MIC of vancomycin against S. coelicolor M145 and its mutant derivatives were determined by growth on minimal media (MM) agar plates supplemented with 1% mannitol as the sole carbon source, and 0, 2, 4, 8, 16, 32, 64, 128, 256 or 512 μg/ml vancomycin, in combination with 0, 1, 5, 10 or 50 mM of D-Ala or L-Ala. The vanX deletion mutants have been tested with 1, 5, 10, 50 and 100 μM D-Ala and L-Ala.

Assay [2] relates to S. coelicolor LAG2 ΔvanX (LAG4). Put plainly: MIC of vancomycin on MM agar plates with added D-Ala. The assay is classed as cell-based. The note with it: Streptomyces coelicolor.
Source text: VanX effectively eradicates the D-Ala-D-Ala dipeptide, thereby counteracting the accumulation of wild-type precursors and supporting vancomycin resistance (Lessard and Walsh, 1999; Tan et al., 2002). Therefore, a vanX null mutant was created using a similar strategy as for ddl, replacing the coding region of vanX by the apramycin resistance cassette aacC4. The mutant was created in both the parental strain S. coelicolor M145 and in its ddl suppressor mutant LAG2, generating LAG3 (M145 ΔvanX) and LAG4 (M145 Δddl ΔvanX vanS::IS466A), respectively.
LAG4 produced 20% wt precursors prior to the addition of D-Ala.
as §1

Assay [3] deals with S. coelicolor LAG2. Kind of assay: LC-MS analysis of peptidoglycan precursors, including time course after alanine addition. It counts as cell-based, Streptomyces coelicolor. As for the experimental part: In order to get more insights into the synthesis of vancomycin-sensitive (i.e., wild-type) or the alternate vancomycin-resistant peptidoglycan, the pool of peptidoglycan precursors was analyzed by Liquid Chromatography coupled to Mass Spectrometry (LC-MS). When cells produce wild-type PG, only the MurNac-pentapeptide with a D-Ala-D-Ala terminus are detected, while vancomycin-resistant PG precursors have a D-Ala-D-Lac terminus. To analyze the precursors produced in S. coelicolor M145 and its mutant derivatives LAG1 (Δddl) and LAG2 (Δddl vanS::IS466A) in the presence or absence of vancomycin, the strains were grown until exponential phase, after which the cultures were harvested, washed and the precursors extracted with 5% TCA. The supernatants were desalted, concentrated and analyzed by LC-MS (see Materials and Methods section).
To investigate what the effect would be of the addition of excess of D-Ala on the accumulation of wild-type precursors, a time-course experiment was performed to follow the effect of D-Ala addition on the ratio between wild-type and resistant precursors. Therefore, 300 ml liquid-grown NMMP cultures were supplemented with either D-Ala or L-Ala (control) at 50 mM end concentration, and 10 ml samples were collected prior to and 1, 5, 15, 30, 60, 120 and 180 minutes after the addition of either alanine stereoisomer. Samples were immediately filtered by vacuum filtration, washed in 0.9% NaCl, biomass scraped off the filter, added to a tube containing 5% TCA and samples prepared as described above. […] However, addition of 50 mM D-Ala triggered the production of small amounts of wt precursor (1%) within 1 minute. After 15 minutes, this amount had increased to 4%, which appeared to be close to the maximum, with levels of wt precursors never exceeding 5%.
For the precursor isolation and identification, a modification of the method described previously by Hong and colleagues (Hong et al., 2004) was used. 10 μg vancomycin was added to the strains at the moment of inoculation. The strains were grown in NMMP (1% (w/v) Mannitol, 50 mM MgCl2) until mid-log phase (OD-0.3-0.4) and mycelia were harvested by centrifugation at 4° C. and washed in 0.9% NaCl. The mycelium was extracted with 5% cold trichloric acid (TCA) for 30 minutes at 4° C. This was centrifuged and the supernatant desalted on a Sephadex G-25 column (Illustra NAP-10 Columns, GE Healthcare, Pittsburgh), and concentrated by rotary evaporation. The concentrated precursors were dissolved in HPLC-grade water and separated by LC-MS using a gradient of 0-20% acetonitrile in water with 0.1% TFA. The elution was monitored at 254 nm and monitored by the sizes eluted (1193.8-1195.3).
For the measurement over time, the protocol was adjusted in the following way: 300 ml NMMP cultures were grown until exponential phase, at which point a 10 ml sample was taken (sample t=0) and 50 mM of D-Ala or L-Ala was added, followed by further sampling after 1, 5, 15, 30, 60, 120 and 180 minutes. Samples were rapidly filtered with a vacuum pump and washed with 0.9% (w/v) NaCl, mycelia scraped off the filter and transferred to 5% TCA.

What is called MIC is the lowest concentration found to suppress growth.

Molecules are shown by their SMILES. Read-outs that look alike come from different tables or passages of the source.

On to `CN[C@H](CC(C)C)C(=O)N[C@H]1C(=O)N[C@@H](CC(N)=O)C(=O)N[C@H]2C(=O)N[C@H]3C(=O)N[C@H](C(=O)N[C@H](C(=O)O)c4cc(O)cc(O)c4-c4cc3ccc4O)[C@H](O)c3ccc(c(Cl)c3)Oc3cc2cc(c3O[C@@H]2O[C@H](CO)[C@@H](O)[C@H](O)[C@H]2O[C@H]2C[C@](C)(N)[C@H](O)[C@H](C)O2)Oc2ccc(cc2Cl)[C@H]1O` [vancomycin], for which the “reduction of the MIC of vancomycin” value in assay [1] (M145, 10 mM D-Ala) is listed as 4 fold; in assay [1] (M145, 50 mM D-Ala), 32 fold. The MIC was determined as 128 µg/mL in assay [1] (M145, read-out: MIC of vancomycin, M145, 0 mM D-Ala); 32 µg/mL in assay [1] (M145, read-out: MIC of vancomycin, M145, 5 mM D-Ala); 32 µg/mL in assay [1] (M145, read-out: MIC of vancomycin, M145, 10 mM D-Ala); 4 µg/mL in assay [1] (M145, read-out: MIC of vancomycin, M145, 50 mM D-Ala); 64 µg/mL in assay [2] (read-out: MIC of vancomycin, LAG2 ΔvanX, 0 μM D-Ala); 32 µg/mL in assay [2] (read-out: MIC of vancomycin, LAG2 ΔvanX, 10 μM D-Ala). The minimum inhibitory concentration (MIC) in assay [2] (read-out: MIC of vancomycin, LAG2 ΔvanX, 50 μM D-Ala) stood at 8 µg/mL; in assay [2] (read-out: MIC of vancomycin, LAG2 ΔvanX, 100 μM D-Ala), 2 µg/mL. Moreover, in assay [3] (LAG2 grown with vancomycin), the “precursors terminated with D-Ala-D-Lac” value was found to be 99.8%. Besides, the “wild-type (vancomycin-sensitive) peptidoglycan” value in assay [3] (LAG2 with vancomycin (FIG. 3B)) is on record as “less than 1%”.

(Values after patent US20190000789A1, “COMPOSITION AND METHOD FOR TREATING INFECTIONS CAUSED BY VANCOMYCIN-RESISTANT INFECTIOUS AGENTS IN A SUBJECT” (priority 2015, published 2019).)
